From the supplement of paper PMC9663587

Each cell line was assayed with C=CC(=O)Nc1ccc(C(=O)Nc2[nH]nc3c2CN(C(=O)N[C@H](CN(C)C)c2ccccc2)C3(C)C)cc1 [YKL-5-124] (assay: increase in dead-cell fraction, 72 h; higher = more death). Conditions: 0.001 µM.
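Further: breast cancer cell lines in 384-well plates, stained with Hoechst plus LIVE/DEAD far red dye and imaged, cells above an LDR intensity threshold counted dead, Hoechst-negative corpses included.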

Cell Line | increase in dead-cell fraction
T47D | 0.0113
UACC812 | 0.0021
UACC893 | -0.0033
ZR751 | 0.0021
ZR7530 | 0.039

Same assay, conditions: 0.003162 µM

Cell Line | increase in dead-cell fraction
T47D | 0.0129
UACC812 | 0.0107
UACC893 | 0.0007
ZR751 | 0.0092
ZR7530 | 0.0535

Same assay, conditions: 0.01 µM

Cell Line | increase in dead-cell fraction
T47D | 0.0177
UACC812 | 0.0182
UACC893 | 0.002
ZR751 | 0.0198
ZR7530 | 0.0595

Same assay, conditions: 0.03162 µM

Cell Line | increase in dead-cell fraction
T47D | 0.0322
UACC812 | 0.0223
UACC893 | 0.0043
ZR751 | 0.0185
ZR7530 | 0.0181

Same assay, conditions: 0.1 µM

Cell Line | increase in dead-cell fraction
T47D | 0.0269
UACC812 | 0.0246
UACC893 | 0.007
ZR751 | 0.014
ZR7530 | 0.0418

Same assay, conditions: 0.3162 µM

Cell Line | increase in dead-cell fraction
T47D | 0.0156
UACC812 | 0.0283
UACC893 | 0.0024
ZR751 | 0.0125
ZR7530 | 0.04

Same assay, conditions: 1 µM

Cell Line | increase in dead-cell fraction
T47D | 0.0308
UACC812 | 0.0151
UACC893 | -0.0001
ZR751 | 0.0157
ZR7530 | 0.0587

Same assay, conditions: 3.162 µM

Cell Line | increase in dead-cell fraction
T47D | 0.0206
UACC812 | 0.027
UACC893 | 0.0003
ZR751 | 0.0241
ZR7530 | 0.0125

Same assay, conditions: 10 µM

Cell Line | increase in dead-cell fraction
T47D | 0.0574
UACC812 | 0.0485
UACC893 | 0.163
ZR751 | 0.0249
ZR7530 | 0.105

What follows are cell lines tested with CN1CC[C@H](c2c(O)cc(O)c3c(=O)cc(-c4ccccc4Cl)oc23)[C@H](O)C1 [Flavopiridol] in the same assay as above. Conditions: 0.0001 µM.

Cell Line | increase in dead-cell fraction
T47D | 0.0101
UACC812 | 0.0015
UACC893 | -0.0013
ZR751 | -0.0019
ZR7530 | -0.0012

Same assay, conditions: 0.0003162 µM

Cell Line | increase in dead-cell fraction
T47D | -0.0037
UACC812 | -0.0016
UACC893 | -0.0009
ZR751 | -0.0035
ZR7530 | 0.0085

Same assay, conditions: 0.001 µM

Cell Line | increase in dead-cell fraction
T47D | 0.0027
UACC812 | 0.0074
UACC893 | 0.0052
ZR751 | 0.0015
ZR7530 | -0.0127

Same assay, conditions: 0.003162 µM

Cell Line | increase in dead-cell fraction
T47D | 0.0005
UACC812 | 0.0022
UACC893 | -0.0042
ZR751 | 0.0014
ZR7530 | -0.0029

Same assay, conditions: 0.01 µM

Cell Line | increase in dead-cell fraction
T47D | 0.0011
UACC812 | -0.0031
UACC893 | -0.0006
ZR751 | -0.0008
ZR7530 | 0.0104

Same assay, conditions: 0.03162 µM

Cell Line | increase in dead-cell fraction
T47D | -0.0028
UACC812 | -0.0033
UACC893 | 0.0011
ZR751 | -0.0022
ZR7530 | 0.0159

Same assay, conditions: 0.1 µM

Cell Line | increase in dead-cell fraction
T47D | 0.0027
UACC812 | 0.0023
UACC893 | 0.0012
ZR751 | 0.0001
ZR7530 | 0.0202

Same assay, conditions: 0.3162 µM

Cell Line | increase in dead-cell fraction
T47D | 0.0159
UACC812 | 0.0692
UACC893 | 0.013
ZR751 | 0.0129
ZR7530 | -0.0023

Same assay, conditions: 1 µM

Cell Line | increase in dead-cell fraction
T47D | 0.0323
UACC812 | 0.403
UACC893 | 0.132
ZR751 | 0.144
ZR7530 | 0.191

What follows are cell lines tested with CC(=O)c1c(C)c2cnc(Nc3ccc(N4CCN(CCOCCOCCOCCNC(=O)COc5cccc6c5C(=O)N(C5CCC(=O)NC5=O)C6=O)CC4)cn3)nc2n(C2CCCC2)c1=O [BSJ-03-123] in the same assay as above. Conditions: 0.001 µM.

Cell Line | increase in dead-cell fraction
T47D | 0.0097
UACC812 | 0.0002
UACC893 | -0.0061
ZR751 | -0.0037
ZR7530 | 0.0025

Same assay, conditions: 0.003162 µM

Cell Line | increase in dead-cell fraction
T47D | 0.0074
UACC812 | 0.0007
UACC893 | 0.0019
ZR751 | -0.0033
ZR7530 | 0.0062

Same assay, conditions: 0.01 µM

Cell Line | increase in dead-cell fraction
T47D | 0.0101
UACC812 | 0.0021
UACC893 | 0.0038
ZR751 | -0.0001
ZR7530 | 0.0113

Same assay, conditions: 0.03162 µM

Cell Line | increase in dead-cell fraction
T47D | 0.0084
UACC812 | 0.0004
UACC893 | -0.0027
ZR751 | -0.0011
ZR7530 | 0.0285

Same assay, conditions: 0.1 µM

Cell Line | increase in dead-cell fraction
T47D | 0.019
UACC812 | 0.0012
UACC893 | 0.0026
ZR751 | 0.0026
ZR7530 | 0.002

Same assay, conditions: 0.3162 µM

Cell Line | increase in dead-cell fraction
T47D | 0.021
UACC812 | -0.0006
UACC893 | 0.0022
ZR751 | -0.0001
ZR7530 | 0.0395

Same assay, conditions: 1 µM

Cell Line | increase in dead-cell fraction
T47D | 0.0319
UACC812 | -0.0002
UACC893 | 0.0012
ZR751 | 0.0048
ZR7530 | 0.0336

Same assay, conditions: 3.162 µM

Cell Line | increase in dead-cell fraction
T47D | 0.022
UACC812 | 0.0096
UACC893 | -0.0003
ZR751 | 0.004
ZR7530 | 0.0895

Same assay, conditions: 10 µM

Cell Line | increase in dead-cell fraction
T47D | 0.0281
UACC812 | 0.0406
UACC893 | 0.0009
ZR751 | 0.0165
ZR7530 | 0.039

These cell lines were tested with CCOc1cc2ncc(C#N)c(Nc3ccc(OCc4ccccn4)c(Cl)c3)c2cc1NC(=O)/C=C/CN(C)C [Neratinib/HKI272] in the same assay as above. Conditions: 0.0003162 µM.

Cell Line | increase in dead-cell fraction
T47D | -0.0033
UACC812 | -0.0016
UACC893 | -0.0043
ZR751 | -0.0059
ZR7530 | 0.0037

Same assay, conditions: 0.001 µM

Cell Line | increase in dead-cell fraction
T47D | 0.0054
UACC812 | 0.0009
UACC893 | -0.0037
ZR751 | -0.0002
ZR7530 | -0.0057

Same assay, conditions: 0.003162 µM

Cell Line | increase in dead-cell fraction
T47D | 0.0022
UACC812 | 0.0017
UACC893 | 0.0271
ZR751 | -0.0001
ZR7530 | -0.0122

Same assay, conditions: 0.01 µM

Cell Line | increase in dead-cell fraction
T47D | 0.0045
UACC812 | 0.0044
UACC893 | 0.0964
ZR751 | -0.0032
ZR7530 | -0.0066

Same assay, conditions: 0.03162 µM

Cell Line | increase in dead-cell fraction
T47D | 0.0043
UACC812 | 0.0198
UACC893 | 0.113
ZR751 | -0.0037
ZR7530 | 0.0011

Same assay, conditions: 0.1 µM

Cell Line | increase in dead-cell fraction
T47D | 0.0001
UACC812 | 0.0311
UACC893 | 0.187
ZR751 | -0.0037
ZR7530 | 0.0186

Same assay, conditions: 0.3162 µM

Cell Line | increase in dead-cell fraction
T47D | 0.0101
UACC812 | 0.0666
UACC893 | 0.21
ZR751 | 0
ZR7530 | 0.0145

Same assay, conditions: 1 µM

Cell Line | increase in dead-cell fraction
T47D | 0.0084
UACC812 | 0.0547
UACC893 | 0.299
ZR751 | 0.0004
ZR7530 | 0.025

Same assay, conditions: 3.162 µM

Cell Line | increase in dead-cell fraction
T47D | 0.0225
UACC812 | 0.114
UACC893 | 0.417
ZR751 | 0.001
ZR7530 | 0.0495

The cell lines below were run with CCc1cnn2c(NCc3ccc[n+]([O-])c3)cc(N3CCCC[C@H]3CCO)nc12 in the same assay as above. Conditions: 0.0001 µM.

Cell Line | increase in dead-cell fraction
T47D | -0.0001
UACC812 | -0.0048
UACC893 | -0.0009
ZR751 | -0.0029
ZR7530 | -0.0019

Same assay, conditions: 0.0003162 µM

Cell Line | increase in dead-cell fraction
T47D | 0.0027
UACC812 | -0.0023
UACC893 | 0.0014
ZR751 | -0.0028
ZR7530 | 0.0016

Same assay, conditions: 0.001 µM

Cell Line | increase in dead-cell fraction
T47D | -0.0018
UACC812 | -0.0065
UACC893 | -0.005
ZR751 | -0.0042
ZR7530 | -0.02

Same assay, conditions: 0.003162 µM

Cell Line | increase in dead-cell fraction
T47D | -0.0021
UACC812 | -0.0073
UACC893 | -0.0023
ZR751 | 0.0003
ZR7530 | 0.0075

Same assay, conditions: 0.01 µM

Cell Line | increase in dead-cell fraction
T47D | 0.0073
UACC812 | -0.007
UACC893 | 0.0014
ZR751 | -0.0059
ZR7530 | -0.0026

Same assay, conditions: 0.03162 µM

Cell Line | increase in dead-cell fraction
T47D | 0.0576
UACC812 | 0.0324
UACC893 | 0.0697
ZR751 | 0.008
ZR7530 | 0.0388

Same assay, conditions: 0.1 µM

Cell Line | increase in dead-cell fraction
T47D | 0.106
UACC812 | 0.478
UACC893 | 0.123
ZR751 | 0.22
ZR7530 | 0.103

Same assay, conditions: 0.3162 µM

Cell Line | increase in dead-cell fraction
T47D | 0.138
UACC812 | 0.529
UACC893 | 0.166
ZR751 | 0.21
ZR7530 | 0.138

Same assay, conditions: 1 µM

Cell Line | increase in dead-cell fraction
T47D | 0.127
UACC812 | 0.523
UACC893 | 0.169
ZR751 | 0.202
ZR7530 | 0.131

The cell lines below were run with CN(C)C/C=C/C(=O)Nc1ccc(C(=O)Nc2cccc(Nc3ncc(Cl)c(-c4c[nH]c5ccccc45)n3)c2)cc1 [THZ1] in the same assay as above. Conditions: 0.0001 µM.

Cell Line | increase in dead-cell fraction
T47D | -0.0018
UACC812 | -0.003
UACC893 | -0.0022
ZR751 | -0.0022
ZR7530 | 0.0034

Same assay, conditions: 0.0003162 µM

Cell Line | increase in dead-cell fraction
T47D | 0.0029
UACC812 | 0.0027
UACC893 | -0.0022
ZR751 | -0.0022
ZR7530 | 0.0045

Same assay, conditions: 0.001 µM

Cell Line | increase in dead-cell fraction
T47D | 0.0039
UACC812 | -0.0004
UACC893 | 0.0023
ZR751 | 0.0059
ZR7530 | 0

Same assay, conditions: 0.003162 µM

Cell Line | increase in dead-cell fraction
T47D | 0.005
UACC812 | 0.0019
UACC893 | -0.0026
ZR751 | -0.0001
ZR7530 | -0.0128

Same assay, conditions: 0.01 µM

Cell Line | increase in dead-cell fraction
T47D | -0.0043
UACC812 | 0.0019
UACC893 | -0.0007
ZR751 | 0.002
ZR7530 | 0.0019

Same assay, conditions: 0.03162 µM

Cell Line | increase in dead-cell fraction
T47D | 0.0328
UACC812 | -0.0013
UACC893 | 0.0317
ZR751 | 0.0035
ZR7530 | 0.0253

Same assay, conditions: 0.1 µM

Cell Line | increase in dead-cell fraction
T47D | 0.0197
UACC812 | -0.0018
UACC893 | 0.0774
ZR751 | 0.0005
ZR7530 | 0.0921

Same assay, conditions: 0.3162 µM

Cell Line | increase in dead-cell fraction
T47D | 0.0299
UACC812 | 0.0001
UACC893 | 0.0967
ZR751 | 0.0111
ZR7530 | 0.097

Same assay, conditions: 1 µM

Cell Line | increase in dead-cell fraction
T47D | 0.0416
UACC812 | 0.0639
UACC893 | 0.134
ZR751 | 0.0673
ZR7530 | 0.229
